# Publication PMC11878239, “Biochemical investigations using mass spectrometry to monitor JMJD6-catalysed hydroxylation of multi-lysine containing bromodomain-derived substrates” (RSC Chemical Biology, 2025)
# “Also recorded” adds a separate entry of the source.
# Assays:
# [1] = retention on SPE cartridges; type: physicochemical; settings: SR protein fragments; SPE cartridges; attributed to high basicity
# Description: The JMJD6-catalysed hydroxylation of the BRD-derived substrate peptide was monitored at ambient temperature by SPE-MS using a RapidFire RF 365 high-throughput sampling robot (Agilent) attached to an iFunnel Agilent 6550 accurate mass quadrupole time-of-flight (Q-TOF) mass spectrometer, which was operated in the positive ionization mode. Assay samples were aspirated under vacuum for 0.4 s, then loaded onto a C4 solid phase extraction (SPE) cartridge. After loading, the C4 SPE cartridge was washed with 0.1%v/v aqueous formic acid to remove non-volatile buffer salts (5 s, 1.5 mL min^−1). The peptide was eluted from the SPE cartridge with 0.1%v/v aqueous formic acid in 75/25v/v acetonitrile/water into the mass spectrometer (5 s, 1.6 mL min^−1) and the SPE cartridge re-equilibrated with 0.1%v/v aqueous formic acid (1 s, 1.25 mL min^−1).
# His6-JMJD6_1–362 = settings: MALDI-TOF MS; His6-JMJD6_1–362 (10 μM), 2OG (500 μM); cited from earlier work
# full-length His6-JMJD6 = biological target: T1, full-length His6-JMJD6 (Homo sapiens, UniProt Q6NYC1); assay: SPE-MS kinetics of JMJD6-catalysed lysyl hydroxylation (2OG, Fe(II), LAA, BRD-derived peptides); type: biochemical; settings: 50 nM JMJD6, 2OG 200 μM, FAS 2 μM, BRD4_511–550 2 μM, LAA varied, Tris pH 7.5; n = 3
# T1 construct: An enzyme mixture (10 μL) containing full-length His6-JMJD6 (5 μM; final concentration: 0.05 μM); made in house; host or cells: Escherichia coli BL21 (DE3), pET-28a(+) plasmid
# Description: Recombinant human JMJD6 (full length with a N-terminal His6-tag) was produced in Escherichia coli BL21 (DE3) cells using a pET-28a(+) plasmid and purified by standard Ni(II)-affinity size-exclusion chromatography, as previously reported.[40] […] Purified JMJD6 was stored at −78 °C; fresh aliquots were used for all JMJD6 assays.
# Peptides were used as 10 mM stock solutions in DMSO (Sigma-Aldrich; BioUltra grade).
# Assay samples were aspirated under vacuum for 0.4 s, then loaded onto a C4 solid phase extraction (SPE) cartridge. After loading, the C4 SPE cartridge was washed with 0.1%v/v aqueous formic acid to remove non-volatile buffer salts (5 s, 1.5 mL min^−1). The peptide was eluted from the SPE cartridge with 0.1%v/v aqueous formic acid in 75/25v/v acetonitrile/water into the mass spectrometer (5 s, 1.6 mL min^−1) and the SPE cartridge re-equilibrated with 0.1%v/v aqueous formic acid (1 s, 1.25 mL min^−1).
# Peaks corresponding to the m/z +5 charge states of the BRD-derived substrate peptide and the hydroxylated product peptides were extracted from the ion chromatogram and integrated using RapidFire Integrator 4.3.0 (Agilent). Peak area data were exported into Microsoft Excel and used to calculate the relative abundance of the mono-hydroxylated product peptide using the following equation: […]
# The concentration of the mono-hydroxylated product peptide was calculated by multiplying the %-fraction of the mono-hydroxylated product peptide by the initial concentration of the substrate peptide employed in the assay. Initial reaction velocities were then calculated and fitted to a Michaelis–Menten plot using nonlinear regression (GraphPad Prism 5).
Molecule,retention on SPE cartridges [1],K m (His6-JMJD6_1–362) [µM],k cat (His6-JMJD6_1–362) [s⁻¹],k cat/Km (His6-JMJD6_1–362) [M⁻¹ s⁻¹],effect of LAA addition on JMJD6 catalysis (full-length His6-JMJD6)
NPKRSRSREHRR [LUC7L2_267–278],poor retention on SPE cartridges,51.0 ± 4.6,0.011,220,–
"O=C1O[C@H]([C@@H](O)CO)C(O)=C1O [LAA, L-ascorbic acid]",–,–,–,–,beneficial effect on JMJD6 catalysis; also recorded: not essential for productive JMJD6 catalysis; also recorded: significantly enhanced levels of JMJD6 catalysis
SRDHKRSRSRERRRS [CROP311–325],poor retention on SPE cartridges,71.0 ± 7.2,0.019,270,–

# The next lines start with results.
retention on SPE cartridges [1],Molecule,K m (His6-JMJD6_1–362) [µM],k cat (His6-JMJD6_1–362) [s⁻¹],k cat/Km (His6-JMJD6_1–362) [M⁻¹ s⁻¹],effect of LAA addition on JMJD6 catalysis (full-length His6-JMJD6)
poor retention on SPE cartridges,RSKSPRRRRSHSR [SRSF11_286–298],41.0 ± 6.6,0.008,200,–
poor retention on SPE cartridges,RSKKRKKSKSRS [RBM39_31–42],56.0 ± 9.6,0.028,400,–
poor retention on SPE cartridges,SRSRSRDRKRRSRSRDR [U2AF65_30–46],78.0 ± 15.0,0.009,120,–
